The results in this text go back to paper PMC2690590, “Functional recombinant MHC class II molecules and high-throughput peptide-binding assays” (Immunome Research, 2009).

Where two headings read alike, the source gives them in different places. Where no end group is shown, it is not given here. Where only a bound is given, the exact number is not on record here.

One experiment deals with DR1 (Homo sapiens, UniProt P01903+P01911, A100R/D57E/F55L/F60I/F76Y/I96L/L162R/M171V/P40L/Q125E/R42F/V115G/Y59C). Description: Effects of additives on the refolding of DR1, spun column assay. The class given is biochemical. The following applies: for Harmfull (to DR1 refolding): additive titrated in refolding buffer pH 8 without glycerol, 3 nM 125I YHA306-318, 80 nM DR1 α and β chains.

Experiment [1] has as its target T1, DR2a (DRA*0101/DRB5*0101) (Homo sapiens, UniProt P01903+Q30154).
T1 construct: DRA*01011-181LZFos; DRB5*01011-190LZJunBSP; made in house
Description: Competitive LOCI peptide-MHC-II binding assay, DR2a.

The next experiment deals with T2, I-E^d (Mus musculus, UniProt P01904+P01915).
T2 construct: I-E^dA1-191LZFos; I-E^dB1-198LZJunBSP; made in house
Description: Direct LOCI peptide-MHC-II binding assay, I-E^d.

The target in a further experiment is T3, DR4 (DRA*0101/DRB1*0401) (Homo sapiens, UniProt P01903+P01911, A100K/A169T/F76Y/I96L/K127E/L162R/M171V/N62H/P40V/Q125Y/R42H/S133A/S149N/S66Y/V115G/V209L/W38E).
T3 construct: DRA*01011-181LZFos; DRB1*04011-190LZJunBSP; made in house
Description: Direct LOCI peptide-MHC-II binding assay, DR4.

The next experiment deals with T4, DR3 (DRA*0101/DRB1*0301) (Homo sapiens, UniProt P01903+P01911, A100K/A102G/A103R/A169T/F55Y/I96L/K41T/L162R/M171V/P40S/Q125H/Q178H/Q39Y/R42S/S66N/T106N/T262R/W38E/Y61H).
T4 construct: DRA*01011-181LZFos; DRB1*03011-190LZJunBSP; made in house
Description: Direct LOCI peptide-MHC-II binding assay, DR3.

Experiment [2] addresses DP401 (DPA1*0103/DPB1*0401) (Homo sapiens, UniProt P04440+P20036). As to the kind of experiment: Direct LOCI peptide-MHC-II binding assay, DP401.
Experiment [3] deals with T5, DRB3*0301 (DRA*0101/DRB3*0301) (Homo sapiens, UniProt P01903+P79483, A169T/A212P/D57E/G115V/L67V/Q178H/R103Q/R40L/Y55F).
T5 construct: DRA*01011-181LZFos; DRB3*03011-190LZJunBSP; made in house
As to the kind of experiment: Direct LOCI peptide-MHC-II binding assay, DRB3*0301.

Experiment [4] addresses T6, DRB1*0813 (DRA*0101/DRB1*0813) (Homo sapiens, UniProt P01903+P01911, A100R/A103L/A169T/F76Y/H45Y/I96L/K41T/L162R/M171V/P40S/Q125H/Q178H/Q39Y/Q99D/R218S/R42G/S66Y/V115G/W38E).
T6 construct: DRA*01011-181LZFos; DRB1*08131-190LZJunBSP; made in house
As to the kind of experiment: Direct LOCI peptide-MHC-II binding assay, DRB1*0813.

In experiment [5] the target is T1, DR2a (DRA*0101/DRB5*0101). As to the kind of experiment: Direct LOCI peptide-MHC-II binding assay, DR2a.
The mark [6] stands for this setting: refolding buffer pH 8 without glycerol, 3 nM 125I YHA306-318, 80 nM DR1.

As for `Oc1ccc(Cl)cc1` [parachlorophenol (pCP), parachlorophenol], on DR1, the “Harmfull (to DR1 refolding)” value was “Yes”. At DR1 (setting [6]), the “additive concentration at 50 % signal reduction” value came to 4 mM.
On to `CC[C@H](C)[C@H](NC(=O)[C@@H](N)Cc1ccc(O)cc1)C(=O)N[C@@H](CC(=O)O)C(=O)N[C@H](C(=O)N[C@@H](Cc1c[nH]c2ccccc12)C(=O)N[C@@H](CC(C)C)C(=O)NCC(=O)NCC(=O)N[C@@H](CC(C)C)C(=O)N[C@@H](C)C(=O)N[C@@H](CCC(=O)O)C(=O)N[C@@H](CC(N)=O)C(=O)N[C@@H](Cc1ccccc1)C(=O)N[C@@H](CC(C)C)C(=O)N1CCC[C@H]1C(=O)N[C@@H](Cc1ccc(O)cc1)C(=O)O)C(C)C` [Thyroid peroxidase], for which the IC50 (in general, the point on the concentration scale where inhibition reaches its midpoint) in experiment [1] (DR2a Komp IC50 (nM)) came to 691 nM. The Kd at I-E^d (I-E^D affinity (nM)) is greater than 5000 nM; at DR4 (DRA*0101/DRB1*0401) (DR4 affinity (nM)), greater than 5000 nM; at DR3 (DRA*0101/DRB1*0301) it was greater than 5000 nM; in experiment [2] (DP401 affinity (nM)), 602 nM; in experiment [3], 3180 nM; in [4], greater than 5000 nM. In addition, the Kd in experiment [5] turned out to be 2140 nM.
Regarding `CC(C)O` [Isopropanol], the “Harmfull (to DR1 refolding)” value at DR1 is given as “Yes”. Further, the “additive concentration at 50 % signal reduction” value at DR1 (setting [6]) is reported as 5 Vol %.
IQMLKNGKKIPKVEMS [Murine β2m] registered an IC50 in experiment [1] (DR2a Komp IC50 (nM)) of 3 nM. Further, the Kd is 117 nM at I-E^d (I-E^D affinity (nM)); greater than 5000 nM on DR4 (DRA*0101/DRB1*0401) (DR4 affinity (nM)); 21 nM on DR3 (DRA*0101/DRB1*0301); greater than 5000 nM in experiment [2] (DP401 affinity (nM)); 70 nM in experiment [3]; 73 nM in experiment [4]. The compound further gave a Kd in experiment [5] of 6 nM.
Regarding `CC[C@H](C)[C@H](NC(=O)[C@@H](N)CCCCN)C(=O)N[C@@H](CC(C)C)C(=O)N[C@@H](CCC(=O)O)C(=O)N1CCC[C@H]1C(=O)N[C@@H](Cc1ccccc1)C(=O)N[C@@H](CCCNC(=N)N)C(=O)N[C@@H](CCCCN)C(=O)N[C@@H](Cc1ccc(O)cc1)C(=O)N[C@H](C(=O)N[C@@H](C)C(=O)N[C@@H](Cc1ccccc1)C(=O)N[C@H](C(=O)N[C@H](C(=O)N1CCC[C@H]1C(=O)O)[C@@H](C)CC)[C@@H](C)O)[C@@H](C)O`, in experiment [1] (DR2a Komp IC50 (nM)), the IC50 amounted to 1 nM. The Kd at I-E^d (I-E^D affinity (nM)) was found to be 2200 nM; on DR4 (DRA*0101/DRB1*0401) (DR4 affinity (nM)), 1600 nM; at DR3 (DRA*0101/DRB1*0301), 18 nM; in experiment [2] (DP401 affinity (nM)) it was 30 nM; in experiment [3] it was 1020 nM; in experiment [4] it was 11 nM. Moreover, the Kd in experiment [5] was 16 nM.
In turn, PLKAEIAQRLEDV [Influenza] returned an IC50 in [1] of 41 nM. Also, the Kd is greater than 5000 nM at I-E^d; 2680 nM at DR4 (DRA*0101/DRB1*0401); 134 nM on DR3 (DRA*0101/DRB1*0301); 2090 nM in experiment [2]; 11 nM in experiment [3]; greater than 5000 nM in experiment [4]. For the same compound, the Kd in experiment [5] was 65 nM.
With `CCCCCCCCO[C@@H]1O[C@H](CO)[C@@H](O)[C@H](O)[C@H]1O` [Beta octyl glucoside], the “Harmfull (to DR1 refolding)” value on DR1 is recorded as “No”. Besides, the “Ok up to” value on DR1 (setting [6]) is on record as “Ok up to 0.5 w/w %”.
As for `CCC(C)O` (stereo not drawn) [2-Butanol], the “Harmfull (to DR1 refolding)” value on DR1 is “Yes”. For the same compound, on DR1 (setting [6]), the “additive concentration at 50 % signal reduction” value was 2.5 Vol %.
For FLIDLAFLI [Pox.o42.con A2], the IC50 in experiment [1] (pH 6-7.5, 48 h 18°C, read-out: DR2a Komp IC50) came out at 4280 nM. The Kd was greater than 5000 nM at I-E^d (48 h 18°C, read-out: I-E^D affinity); greater than 5000 nM at DR4 (DRA*0101/DRB1*0401) (pH 6-7.5, 48 h 18°C, read-out: DR4 affinity); greater than 5000 nM at DR3 (DRA*0101/DRB1*0301) (pH 6-7, 48 h 18°C, read-out: DR3 affinity); 179 nM in experiment [2] (pH 7, 48 h 18°C, read-out: DP401 affinity); greater than 5000 nM in experiment [3] (pH 7, 48 h 18°C, read-out: DRB3*0301 affinity); greater than 5000 nM in [4] (pH 6-7.5, 48 h 18°C, read-out: DRB1*0813 affinity). In addition, in experiment [5] (pH 6, 48 h 18°C, read-out: DR2a pH6 affinity), the Kd was greater than 5000 nM.
